The values that follow come from publication PMC13308190, “Endothelial progenitor cell susceptibility to DNA damaging and DDR-modulating compounds determines endothelial differentiation accuracy” (Stem Cell Research & Therapy, 2026).

In data set [1] the test system is mESC. In words: EdU incorporation (S-phase activity). The format is cell-based, mouse. The settings on record: mESC 24 h.
Data set [2] deals with EC d4. Nature of the data set: ZO1 tight junction immunofluorescence. Type of data set: cell-based, mouse. The settings on record: EC d4 treated 48 h.
Data set [3] concerns EC d4. Nature of the data set: VE-cadherin cell-cell junction immunostaining. Type of data set: cell-based, mouse. The settings on record: EC d4 treated 48 h.
Data set [4] relates to EC d6. In words: ZO1 tight junction immunofluorescence. Type of data set: cell-based, mouse. The settings on record: analysed 2 days later.
Data set [5] relates to EC d6. In words: Mitochondrial membrane potential (TMRM-MitoTracker Green). Type of data set: cell-based, mouse. The settings on record: EC d6 treated 24 h. As for the experimental part: Mitochondrial membrane potential (ΔΨm) was analyzed by live-cell imaging using TMRM-MitoTracker Green co-staining. Cells were seeded and differentiated on Poly-D-Lysine-fibronectine-coated live-imaging dishes. For staining, cells were incubated with 200nM MitoTracker Green (Invitrogen) and 50 nM TMRM (Invitrogen) in DMEM (30 min, 37 °C, 5% CO2). After washing with PBS, live-cell microscopy was performed using a spinning disc confocal microscope (PerkinElmer) equipped with a 60x oil-immersion objective (N.A = 1.49) and a Hamamatsu C9100 camera (1000 × 1000 pixel) (excitation (MitoTracker Green): 488 nm, excitation (TMRM): 561 nm). The cells were kept at 37 °C in OptiMEM supplemented with 10 mM HEPES during imaging. The images were obtained at emission wavelength of 527 nm (W55) and 615 nm (W70) for 488 nm and 561 nm excitation, respectively.

Data set [6] has as its system EC d4. In words: Dil-acLDL uptake. The format is cell-based, mouse. The conditions noted are these: EC d4 treated 48 h. The procedure:
To monitor prototypical functions of endothelial cells, the uptake of fluorescent 1,1-dioctadecyl-3,3,3,3-tetra-methylindocarbocyanine-labeled acetylated LDL (Dil-acLDL) was examined. Briefly, cells were incubated with Dil-acLDL (10 µg/ml, 4 h, 37 °C). After fixation (3.7% cold formaldehyde/PBS (15 min, RT) nuclei were counterstained with DAPI. The uptake of DiI-acLDL was analyzed by fluorescence microscopy (Olympus BX43, 20x objective). Additionally, the response of differentiated EC to inflammatory cytokines was measured. After treatment with a pro-inflammatory cytokine mixture (TNFα/IL-1β, 10 ng/mL) for 1 h, mRNA expression of activated EC markers E-selectin, Icam-1, Vcam-1, Ccl2, eNos, iNos was analyzed (RT-qPCR).

In data set [7] the test system is mESC. In words: Alkaline comet assay. The conditions noted are these: mESC 24 h.
Data set [8] has as its system EC d6. Nature of the data set: DNA fiber spreading assay. The settings on record: EC d6 24 h; HU: 5 mM, 1 h. The format is cell-based, mouse. As for the experimental part:
(§1) To analyze DNA replication fork progression, the DNA fiber spreading assay was performed. Briefly, cells were pulse-labeled with 20 µM CldU (20 min, 37 °C, 5% C0_2) and immediately afterwards with 200 µM IdU (20 min, 37 °C, 5% C02). Cell suspension was applied onto glass slides followed by cell lysis (0.5% SDS, 200 mM Tris–HCl, 50 mM EDTA). After incubation (6 min, RT), slides were tilted upwards to stretch the fibers, dried 6 min lying horizontally flat and fixed (5 min, RT) in methanol: acetic acid (3:1). After drying (7 min, lying horizontally flat) slides were stored overnight in 70% ethanol (4 °C). The next day samples were incubated in 100% methanol (5 min, RT) followed by denaturation in 2.5 M HCl (1 h, RT) and blocking (5% BSA in PBS, 1 h, 37 °C). DNA Fibers were stained with rat anti-BrdU (1:40) for CldU detection and mouse anti-BrdU (1:70) for IdU detection (in 0.5% BSA/PBS; 1 h, RT). After washing (0.05% Tween 20 in PBS and PBS) incubation with secondary antibodies anti-rat 488 (1:400) and anti-mouse 555 (1:250) was performed (1 h, RT, 0.5% BSA in PBS). Following washing with 0.05% Tween 20 in PBS and PBS, the slides were mounted with Fluoroshield (Sigma [Steinheim, Germany]). DNA fibers were analyzed microscopically (Olympus BX43 fluorescence microscope [40 objective]). The length of CldU (green) and IdU (red) tract was measured using ImageJ software, analyzing 200 fibers per experimental condition.

Data set [9] concerns mESC. Nature of the data set: DNA fiber spreading assay. Type of data set: cell-based, mouse. The settings on record: mESC 24 h; HU: 5 mM, 1 h. The procedure:
as §1

Data set [10] deals with EC d4. Nature of the data set: Doxorubicin import/export (flow cytometry). Type of data set: cell-based, mouse. The conditions noted are these: EC d4, 2 h pulse then 6 h post-incubation. The procedure: Import and export of Dox were examined via flow cytometry. […] Trypsinized cells were washed with PBS and pelleted by centrifugation (200 x g, 5 min, 4 °C). After additional washing, cells were resuspended in PBS.
In general terms: In flow cytometry, cells or beads pass a laser one at a time.

Data set [11] deals with EC d4. In words: Beta-galactosidase staining (senescence). Type of data set: cell-based, mouse. The conditions noted are these: EC d4 48 h. The procedure: (§2) Beta-galactosidase activity was analyzed using the Cellular Senescence Assay Kit (Cell Biolabs, Inc., San Diego, CA, USA) according to the manufacturer’s instructions. After treatment and/or post-incubation period, the cells were fixed and stained (overnight, 37 °C). For control, untreated cells were incubated with working solution containing citrate-Na2HPO4 buffer at pH 4. The cells were analyzed by light microscopy (Axiovert 40 C, Carl Zeiss AG, 20x objective) and the fraction of beta-galactosidase positive (blue) cells was calculated (5 images per sample).

In data set [12] the test system is EC d6. In words: Beta-galactosidase staining (senescence). Type of data set: cell-based, mouse. The conditions noted are these: EC d6 24 h + 24 h post incubation. The procedure: as §2
Data set [13] deals with EC d4. In words: DNA fiber spreading assay. The format is cell-based, mouse. The settings on record: EC d4 48 h; HU: 5 mM, 1 h. The procedure:
as §1

With `O=c1c2ccccc2nc(/C=C/c2cccnc2)n1Cc1ccccc1` [B02], the “number of EdU-positive cells” value in [1] is “not”. For the same compound, the “ZO1 containing tight junctions in EC d6 differentiated from treated EC d4” value in data set [2] is on record as “did not affect”. For the same compound, the “VE-cadherin cell-cell junctions in EC d6 differentiated from treated EC d4” value in data set [3] is “did not trigger defects”. Further, the “ZO1 assembly in treated EC d6” value in data set [4] was “clearly visible gaps”. Moreover, the mitochondrial membrane potential result in data set [5] is “significantly reduced”. For the same compound, the “LDL uptake in EC d6 progeny of treated EC d4” value in [6] is reported as “strongest functional defect”.

Take `COc1cccc2c1C(=O)c1c(O)c3c(c(O)c1C2=O)C[C@@](O)(C(=O)CO)C[C@@H]3O[C@H]1C[C@H](N)[C@H](O)[C@H](C)O1` [Dox, doxorubicin]: in [1], the “number of EdU-positive cells” value is given as “significant drop”. Further, the “ZO1 containing tight junctions in EC d6 differentiated from treated EC d4” value in [2] is “fragmented / interrupted ZO1 containing tight junctions”. In data set [3], the “VE-cadherin cell-cell junctions in EC d6 differentiated from treated EC d4” value is reported as “disturbed”. Besides, the “steady-state level of SSB (alkaline comet assay)” value in data set [7] is given as “significant increase”. For the same compound, the “ZO1 assembly in treated EC d6” value in [4] is given as “clearly visible gaps”. Besides, in data set [5], the mitochondrial membrane potential result is on record as “significantly reduced”. For the same compound, the “LDL uptake in EC d6 progeny of treated EC d4” value in data set [6] is “noticably reduced LDL uptake”. For the same compound, the results for the replication fork progression entry in [8] and in data set [9] were “did not influence fork speed” and “accelerated fork progression”, respectively. Moreover, the “Dox efflux capacity as compared to the other differentiation stages” value in [10] was “enhanced export activity”. Besides, the “percentage of beta-Gal-positive cells” value in [11] and in data set [12] was “increase” in each case.

In the case of `Nc1ccccc1NC(=O)c1ccc(CNC(=O)OCc2cccnc2)cc1` [EST, entinostat], in [2], the “ZO1 containing tight junctions in EC d6 differentiated from treated EC d4” value is reported as “did not affect”. Moreover, the “VE-cadherin cell-cell junctions in EC d6 differentiated from treated EC d4” value in data set [3] is on record as “did not trigger defects”. Besides, the “ZO1 assembly in treated EC d6” value in data set [4] is reported as “clearly visible gaps”. Moreover, in [5], the mitochondrial membrane potential result was “remained largely unaffected”. Also, the results for the replication fork progression result in data set [13], in data set [8] and in data set [9] were “opposite effects”, “opposite effects” and “promoted new DNA strand synthesis”, respectively. Further, the “percentage of beta-Gal-positive cells” value in [11] and in data set [12] was “increase” throughout.
